Results reported in patent publication US20250368633A1, “AZEPINE FUSED RING COMPOUND AS RIPK1 INHIBITOR AND USE THEREOF” (ARTIVILA BIOPHARMA, priority 2022, published 2025).

Experiments:
U937 cells [1] = experiment: Inhibition rate of compound (1 μM) on necroptosis of U937 cells (TSZ-induced, CellTiter-Glo); type: cell-based; settings: TSZ (hTNF-α, SM-164, Z-VAD-FMK) 20 hours
Method: (§1) The biological activity of RIPK1 inhibitors was further evaluated in the inhibition of necroptosis in U937 cells. U937 cell line was purchased from Huatuo Biotechnology and stored in liquid nitrogen. U937 cells were revived before the experiment and cultured in RPMI-1640 medium (supplemented with 10% fetal bovine serum, 100 U/mL penicillin and 100 μg/mL streptomycin) at 37° C., 5% CO2. The activity was further evaluated by the cellular ATP level detected by the Promega CellTiter-Glo 2.0 Assay cell viability assay kit (Catalog No.: G9242).
The experimental method was briefly described as below. U937 cells in the logarithmic growth phase were collected by centrifugation. Cells were diluted at the density of 5×10^5 cells/mL with RPMI 1640 medium (supplemented with 10% fetal bovine serum, 100 U/mL penicillin and 100 μg/mL streptomycin). The cell suspension was added to a white sterile 384-well cell culture plate at 15 μL/well. The test compound was dissolved in DMSO to prepare a 10 mM stock solution and diluted to 10 μM with culture medium. At the same time, a control with the same DMSO volume was set up. Two replicates were added for each concentration. The diluted compound was added to the 384-well cell culture plate containing cells at 2.5 µL/well and incubated at 37° C., 5% CO2 for 15 minutes. Z-VAD-FMK (Biyuntian, catalog number: C1202-5 mg) was dissolved in DMSO to prepare a 20 mM stock solution. SM-164 (Biyuntian, catalog number: SC0114-10 mM) was dissolved in DMSO to prepare a 10 mM stock solution and diluted to 0.1 mM. hTNF-α (Sino Biological Inc., catalog number: 10602-HNAE) was dissolved in sterile water to 10 μg/mL. RPMI 1640 medium (supplemented with 10% fetal bovine serum, 100 U/mL penicillin and 100 μg/mL streptomycin) was used to prepare the TSZ mixture, containing 133.3 μM Z-VAD-FMK, 33.3 ng/ml hTNF-α and 0.3 μM SM-164. After 15 minutes' coculture of compounds and cells, 7.5 μL of TSZ mixture was added to each well, mixed evenly, and cultured at 37° C., 5% CO2 for 20 hours. After 20 hours, the culture plate was removed and placed at room temperature for 30 minutes. 10 μL of CellTiter-Glo reagent pre-equilibrated at room temperature was added to each well and incubated for 10 minutes from light. The chemiluminescence was read by a microplate reader. The inhibition rate was calculated as Inh %=(1−(no TSZ-TSZ & compound)/(no TSZ-TSZ))×100.

U937 cells [2] = experiment: EC50 of necroptosis inhibition in U937 cells (TSZ-induced, CellTiter-Glo); type: cell-based; settings: Homo sapiens, U-937; TSZ (hTNF-α, SM-164, Z-VAD-FMK) 20 hours; 10 concentration points; read-out: EC50 intervals of necroptosis inhibition in U937 cells
Method: as §1
The experimental method was briefly described as below. U937 cells in the logarithmic growth phase were collected by centrifugation. Cells were diluted to the cell density of 5×10^5 cells/mL with RPMI 1640 medium (supplemented with 10% fetal bovine serum, 100 U/mL penicillin and 100 μg/mL streptomycin). Cell suspension was added to a white sterile 384-well cell culture plate at 15 μL/well. The test compound was dissolved in DMSO to prepare a 10 mM stock solution. The compound was serially diluted with culture medium at a ratio of 1:3, for a total of 10 concentration points. A control with the same DMSO volume was set, with two replicates for each concentration. The diluted compound was added to the 384-well cell culture plate containing cells at 2.5 μL/well and incubated at 37° C., 5% CO2 for 15 minutes. Z-VAD-FMK (Biyuntian, catalog number: C1202-5 mg) was dissolved in DMSO to prepare a 20 mM stock solution. SM-164 (Biyuntian, catalog number: SC0114-10 mM) was dissolved in DMSO to prepare a 10 mM stock solution and diluted to 0.1 mM. hTNF-α (Sino Biological Inc., catalog number: 10602-HNAE) was dissolved in sterile water to 10 μg/mL. RPMI 1640 medium (supplemented with 10% fetal bovine serum, 100 U/mL penicillin and 100 μg/mL streptomycin) was used to prepare the TSZ mixture, containing 133.3 μM Z-VAD-FMK, 33.3 ng/ml hTNF-α and 0.3 μM SM-164. After 15 minutes' coculture of compounds and cells, 7.5 μL of TSZ mixture was added to each well, mixed evenly, and cultured at 37° C., 5% CO2 for 20 hours. After 20 hours, the culture plate was removed and placed at room temperature for 30 minutes. Then, 10 μL of CellTiter-Glo reagent pre-equilibrated at room temperature was added to each well and incubated. After 10 minutes' incubation at room temperature in the dark, the chemiluminescence were measured using a microplate reader. The inhibition rate was calculated as Inh %=(1−(no TSZ-TSZ & compound)/(no TSZ-TSZ))×100. The EC50 was obtained by fitting the nonlinear regression curve log [inhibitor] vs. response−variable slope (four parameters) in GraphPad Prism.

RIPK1 kinase = target: T1, RIPK1 kinase (Homo sapiens, UniProt Q13546); experiment: In vitro RIPK1 kinase activity assay (ADP-Glo), inhibition by compounds at 1 μM; type: biochemical; settings: compound 1 μM; ATP 10 μM; MBP substrate 100 μg/mL; read-out: RIPK1 kinase activity inhibition rate range
T1 construct: purchased Promega VA7593
T1 sequence (Q13546 1-671): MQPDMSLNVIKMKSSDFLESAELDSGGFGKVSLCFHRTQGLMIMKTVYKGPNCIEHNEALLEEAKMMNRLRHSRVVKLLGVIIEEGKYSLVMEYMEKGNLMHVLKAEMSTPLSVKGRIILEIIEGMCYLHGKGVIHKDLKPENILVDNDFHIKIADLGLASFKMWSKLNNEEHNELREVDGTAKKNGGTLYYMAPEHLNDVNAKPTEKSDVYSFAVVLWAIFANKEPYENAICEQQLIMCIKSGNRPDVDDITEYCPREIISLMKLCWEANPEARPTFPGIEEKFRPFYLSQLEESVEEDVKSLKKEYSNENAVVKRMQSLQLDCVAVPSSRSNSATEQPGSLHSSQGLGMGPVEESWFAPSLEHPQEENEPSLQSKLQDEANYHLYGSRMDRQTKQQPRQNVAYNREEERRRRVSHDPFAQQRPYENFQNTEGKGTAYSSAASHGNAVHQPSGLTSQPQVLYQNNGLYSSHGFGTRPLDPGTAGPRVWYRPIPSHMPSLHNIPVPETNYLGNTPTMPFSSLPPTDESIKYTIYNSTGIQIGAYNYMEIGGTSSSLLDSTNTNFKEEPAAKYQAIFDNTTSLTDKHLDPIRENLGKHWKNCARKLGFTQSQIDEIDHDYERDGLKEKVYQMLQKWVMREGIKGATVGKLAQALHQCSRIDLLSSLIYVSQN
Method: RIPK1 kinase activity was assayed using the ADP-Glo assay and RIPK1 kinase reaction system (Promega, catalog number: VA7593). The RIPK1 kinase activity assay was performed according to the Promega kit manual.
The experimental method was briefly described as below. The concentration of RIPK1 kinase in the RIPK1 kinase reaction system was determined by kinase titration and S/B10. Compounds were diluted with 1× kinase buffer D (1% DMSO), and 1 μL of 100 μM compound DMSO stock solution was added to 19 μL 1× kinase buffer D. RIPK1 kinase was diluted with 1× kinase buffer D. 2.5×ATP/substrate was diluted with 1× kinase buffer D. The final concentration of ATP in the kinase reaction system was 10 μM, and the final concentration of MBP substrate was 100 μg/mL. 1 μL of diluted compound and 2 μL of diluted RIPK1 kinase were mixed, incubated at room temperature for 15 minutes, 2 μL of 2.5×ATP/substrate was added, mixed, and incubated at room temperature for 1 hour. 5 μL of ADP-Glo reagent was added to each well and incubated at room temperature for 1 hour. 10 μL of ADP detection reagent was added to each well and incubated at room temperature for another 0.5-1 hour. The chemiluminescent signal was read by a microplate reader and the inhibition rate of kinase activity was calculated.

SMILES | inhibition at 1 µM (RIPK1 kinase) | Inhibition rate range of compounds (1 μM) on U937 cell necroptosis (U937 cells [1]) | EC50 (U937 cells [2])
CN1C(=O)[C@@H](NC(=O)C(=O)NCCc2ccccc2)COc2ccc(C#CC3CC3)cc21 [Example 2, (S)—N^1-(7-(cyclopropylethynyl)-5-methyl-4-oxo-2,3,4,5-tetrahydrobenzo[b][1,4]oxazepin-3-yl)-N^2-phenethyloxalamide] | ≥ 75% | A (A: ≥90%) | < 100 nM
CN1C(=O)[C@@H](NC(=O)C(=O)NCCc2ccccc2)COc2cc(O)ccc21 [Example 5, (S)—N^1-(8-hydroxy-5-methyl-4-oxo-2,3,4,5-tetrahydrobenzo[b][1,4]oxazepin-3-yl)-N^2-phenethyloxalamide] | ≥ 75% | A (A: ≥90%) | 100 to 500 nM
CN1C(=O)[C@@H](NC(=O)C(=O)NCCc2ccccc2)COc2ccc(O)cc21 [Example 6, (S)—N^1-(7-hydroxy-5-methyl-4-oxo-2,3,4,5-tetrahydrobenzo[b][1,4]oxazepin-3-yl)-N^2-phenethyloxalamide] | 50 to 74% | A (A: ≥90%) | 100 to 500 nM
C=CCOc1ccc2c(c1)N(C)C(=O)[C@@H](NC(=O)C(=O)NCCc1ccccc1)CO2 [Example 9, (S)—N^1-(7-(allyloxy)-5-methyl-4-oxo-2,3,4,5-tetrahydrobenzo[b][1,4]oxazepin-3-yl)-N^2-phenethyl oxalamide] | ≥ 75% | A (A: ≥90%) | 100 to 500 nM
Cc1cccc(/C=C/c2ccc3c(c2)N(C)C(=O)[C@@H](NC(=O)C(=O)NCCc2ccccc2)CO3)c1 [Example 11, (S,E)-N^1-(5-methyl-7-(3-methylstyryl)-4-oxo-2,3,4,5-tetrahydrobenzo[b][1,4]oxazepin-3-yl)-N^2-phenethyloxalamide] | ≥ 75% | A (A: ≥90%) | < 100 nM
CN1C(=O)[C@@H](NC(=O)C(=O)NCCc2ccccc2F)COc2ccccc21 [Example 99, (S)—N^1-(2-fluorophenethyl)-N^2-(5-methyl-4-oxo-2,3,4,5-tetrahydrobenzo[b][1,4]oxazepin-3-yl)oxalamide] | 50 to 74% | B (B: 50-89%) | –
CN1C(=O)[C@@H](NC(=O)C(=O)NCCOc2ccccc2)COc2ccccc21 [Example 103, (S)—N^1-(5-methyl-4-oxo-2,3,4,5-tetrahydrobenzo[b][1,4]oxazepin-3-yl)-N^2-(2-phenoxyethyl)oxalamide] | 25 to 49% | – | 500 to 2000 nM

Second part, led by results:

inhibition at 1 µM (RIPK1 kinase) | SMILES | Inhibition rate range of compounds (1 μM) on U937 cell necroptosis (U937 cells [1]) | EC50 (U937 cells [2])
≥ 75% | C[C@@H](NC(=O)C(=O)N[C@H]1COc2ccc(C#CCN3CCN(CCOCCOCCOCCC(=O)Nc4cccc5c4CN(C4CCC(=O)NC4=O)C5=O)CC3)cc2N(C)C1=O)c1ccccc1 (mixture of isomers) [Example 164, N^1-((3S)-7-(3-(4-(2-(2-(2-(3-((2-(2,6-dioxopiperidin-3-yl)-1-oxoisoindolin-4-yl)amino)-3-oxopropoxy)ethoxy)ethoxy)ethyl)piperazin-1-yl)prop-1-yn-1-yl)-5-methyl-4-oxo-2,3,4,5-tetrahydrobenzo[b][1,4]oxazepin-3-yl)-N^2-((R)-1-phenylethyl)oxalamide] | A (A: ≥90%) | 100 to 500 nM
50 to 74% | CN1C(=O)[C@@H](NC(=O)C(=O)NCCc2ccccc2)COc2ccc(Br)cc21 [Example 1, (S)—N^1-(7-bromo-5-methyl-4-oxo-2,3,4,5-tetrahydrobenzo[b][1,4]oxazepin-3-yl)-N^2-phenethyloxalamide] | A (A: ≥90%) | 100 to 500 nM
≥ 75% | CN1C(=O)[C@@H](NC(=O)C(=O)NCCc2ccccc2)COc2cc(Br)ccc21 [Example 3, (S)—N^1-(8-bromo-5-methyl-4-oxo-2,3,4,5-tetrahydrobenzo[b][1,4]oxazepin-3-yl)-N^2-phenethyloxalamide] | A (A: ≥90%) | 500 to 2000 nM
≥ 75% | COc1ccc2c(c1)N(C)C(=O)[C@@H](NC(=O)C(=O)NCCc1ccccc1)CO2 [Example 8, (S)—N^1-(7-methoxy-5-methyl-4-oxo-2,3,4,5-tetrahydrobenzo[b][1,4]oxazepin-3-yl)-N^2-phenethyloxalamide] | A (A: ≥90%) | 100 to 500 nM
≥ 75% | C#CCOc1ccc2c(c1)N(C)C(=O)[C@@H](NC(=O)C(=O)NCCc1ccccc1)CO2 [Example 10, (S)—N^1-(5-methyl-4-oxo-7-(prop-2-yn-1-yloxy)-2,3,4,5-tetrahydrobenzo[b][1,4]oxazepin-3-yl)-N^2-phenethyloxalamide] | A (A: ≥90%) | 100 to 500 nM
